One block for each compound: values may come before it.
Tested on: OVCAR-8 complex spheroid, growth inhibition
Experiment: Anticancer human tumor OVCAR-8 cell line growth inhibition [Asc];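 note: spheroids exposed to agents for 7 days before readout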;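 for viability, T/C: percent viability relative to DMSO vehicle wells taken as 100%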
Settings: for IC50: curve of first compound; for viability, T/C: stronger effect = lower value
Method in brief: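 Complex solid-tumor spheroids incorporating human endothelial and mesenchymal stem cells received single agents or combinations over half-log dilution ranges anchored to clinical Cmax.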

[1] = second compound 0.0316 µM, first compound 0.0316 µM
[2] = second compound 0.0316 µM, first compound 0.1 µM
[3] = second compound 0.0316 µM, first compound 0.316 µM
[4] = second compound 0.0316 µM, first compound 1 µM
[5] = second compound 0.1 µM, first compound 0.0316 µM
[6] = second compound 0.1 µM, first compound 0.1 µM
[7] = second compound 0.1 µM, first compound 0.316 µM
[8] = second compound 0.1 µM, first compound 1 µM
[9] = second compound 0.316 µM, first compound 0.0316 µM
[10] = second compound 0.316 µM, first compound 0.1 µM
[11] = second compound 0.316 µM, first compound 0.316 µM
[12] = second compound 0.316 µM, first compound 1 µM
[13] = second compound 1 µM, first compound 0.0316 µM
[14] = second compound 1 µM, first compound 0.1 µM
[15] = second compound 1 µM, first compound 0.316 µM
[16] = second compound 1 µM, first compound 1 µM
[17] = second compound 3.16 µM, first compound 0.0316 µM
[18] = second compound 3.16 µM, first compound 0.1 µM
[19] = second compound 3.16 µM, first compound 0.316 µM
[20] = second compound 3.16 µM, first compound 1 µM
[21] = second compound 10 µM, first compound 0.0316 µM
[22] = second compound 10 µM, first compound 0.1 µM
[23] = second compound 10 µM, first compound 0.316 µM
[24] = second compound 10 µM, first compound 1 µM

IC50 (second compound 0.0316 µM): > 10 µM | IC50 (second compound 0.1 µM): > 10 µM | IC50 (second compound 0.316 µM): > 10 µM | IC50 (second compound 1 µM): > 10 µM | IC50 (second compound 3.16 µM): > 10 µM | IC50 (second compound 10 µM): > 10 µM
Compound: O=C(c1cc(Cc2n[nH]c(=O)c3ccccc23)ccc1F)N1CCN(C(=O)C2CC2)CC1 + Cc1c(S(C)(=O)=O)c(-c2cc(F)cc(N3CCN(c4ccc(NS(=O)(=O)c5ccc(NC(CCN6CCC(C(=O)OCCCP(=O)(O)O)CC6)CSc6ccccc6)c(S(=O)(=O)C(F)(F)F)c5)cc4)CC3)c2)c(-c2ccc(Cl)cc2)n1C(C)C
viability, T/C [1]: 95.1% | viability, T/C [2]: 97% | viability, T/C [3]: 88.2% | viability, T/C [4]: 102% | viability, T/C (second compound 0.0316 µM, first compound 3.16 µM): 137% | viability, T/C (second compound 0.0316 µM, first compound 10 µM): 114% | viability, T/C [5]: 100% | viability, T/C [6]: 87.9% | viability, T/C [7]: 92.5% | viability, T/C [8]: 98.2% | viability, T/C (second compound 0.1 µM, first compound 3.16 µM): 115% | viability, T/C (second compound 0.1 µM, first compound 10 µM): 137% | viability, T/C [9]: 103% | viability, T/C [10]: 101% | viability, T/C [11]: 105% | viability, T/C [12]: 110% | viability, T/C (second compound 0.316 µM, first compound 3.16 µM): 161% | viability, T/C (second compound 0.316 µM, first compound 10 µM): 130% | viability, T/C [13]: 132% | viability, T/C [14]: 96.7% | viability, T/C [15]: 120% | viability, T/C [16]: 120% | viability, T/C (second compound 1 µM, first compound 3.16 µM): 152% | viability, T/C (second compound 1 µM, first compound 10 µM): 109% | viability, T/C [17]: 134% | viability, T/C [18]: 106% | viability, T/C [19]: 100% | viability, T/C [20]: 104% | viability, T/C (second compound 3.16 µM, first compound 3.16 µM): 140% | viability, T/C (second compound 3.16 µM, first compound 10 µM): 107% | viability, T/C [21]: 125% | viability, T/C [22]: 107% | viability, T/C [23]: 112% | viability, T/C [24]: 124% | viability, T/C (second compound 10 µM, first compound 3.16 µM): 159% | viability, T/C (second compound 10 µM, first compound 10 µM): 98.9%

IC50 (second compound 0.0316 µM): > 1 µM | IC50 (second compound 0.1 µM): > 1 µM | IC50 (second compound 0.316 µM): > 1 µM | IC50 (second compound 1 µM): > 1 µM | IC50 (second compound 3.16 µM): > 1 µM | IC50 (second compound 10 µM): > 1 µM
Compound: O=C(c1ccc(F)c(F)c1Nc1ccc(I)cc1F)N1CC(O)([C@@H]2CCCCN2)C1 + Cc1c(S(C)(=O)=O)c(-c2cc(F)cc(N3CCN(c4ccc(NS(=O)(=O)c5ccc(NC(CCN6CCC(C(=O)OCCCP(=O)(O)O)CC6)CSc6ccccc6)c(S(=O)(=O)C(F)(F)F)c5)cc4)CC3)c2)c(-c2ccc(Cl)cc2)n1C(C)C
viability, T/C (second compound 0.0316 µM, first compound 0.00316 µM): 103% | viability, T/C (second compound 0.0316 µM, first compound 0.01 µM): 114% | viability, T/C [1]: 140% | viability, T/C [2]: 173% | viability, T/C [3]: 234% | viability, T/C [4]: 135% | viability, T/C (second compound 0.1 µM, first compound 0.00316 µM): 110% | viability, T/C (second compound 0.1 µM, first compound 0.01 µM): 134% | viability, T/C [5]: 160% | viability, T/C [6]: 199% | viability, T/C [7]: 254% | viability, T/C [8]: 122% | viability, T/C (second compound 0.316 µM, first compound 0.00316 µM): 115% | viability, T/C (second compound 0.316 µM, first compound 0.01 µM): 115% | viability, T/C [9]: 157% | viability, T/C [10]: 204% | viability, T/C [11]: 244% | viability, T/C [12]: 139% | viability, T/C (second compound 1 µM, first compound 0.00316 µM): 129% | viability, T/C (second compound 1 µM, first compound 0.01 µM): 157% | viability, T/C [13]: 195% | viability, T/C [14]: 228% | viability, T/C [15]: 258% | viability, T/C [16]: 126% | viability, T/C (second compound 3.16 µM, first compound 0.00316 µM): 125% | viability, T/C (second compound 3.16 µM, first compound 0.01 µM): 137% | viability, T/C [17]: 197% | viability, T/C [18]: 228% | viability, T/C [19]: 253% | viability, T/C [20]: 99.5% | viability, T/C (second compound 10 µM, first compound 0.00316 µM): 154% | viability, T/C (second compound 10 µM, first compound 0.01 µM): 141% | viability, T/C [21]: 183% | viability, T/C [22]: 224% | viability, T/C [23]: 234% | viability, T/C [24]: 107%

IC50 (second compound 0.00949 µM): > 10 µM | IC50 (second compound 0.03 µM): > 10 µM | IC50 (second compound 0.0949 µM): > 10 µM | IC50 (second compound 0.3 µM): > 10 µM | IC50 (second compound 0.949 µM): > 10 µM | IC50 (second compound 3 µM): > 10 µM
Compound: C=CC(=O)N1CCN(c2nc(=O)n(-c3c(C)ccnc3C(C)C)c3nc(-c4c(O)cccc4F)c(F)cc23)C(C)C1 (stereo unspecified) + CCN1C(C(=O)NC23CCC(C(=O)O)(CC2)CC3)C(c2cccc(Cl)c2F)C2(C(=O)Nc3cc(Cl)ccc32)C12CCCCC2
viability, T/C (second compound 0.00949 µM, first compound 0.0316 µM): 94.2% | viability, T/C (second compound 0.00949 µM, first compound 0.1 µM): 89.9% | viability, T/C (second compound 0.00949 µM, first compound 0.316 µM): 94.7% | viability, T/C (second compound 0.00949 µM, first compound 1 µM): 81.7% | viability, T/C (second compound 0.00949 µM, first compound 3.16 µM): 89.3% | viability, T/C (second compound 0.00949 µM, first compound 10 µM): 100% | viability, T/C (second compound 0.03 µM, first compound 0.0316 µM): 101% | viability, T/C (second compound 0.03 µM, first compound 0.1 µM): 90.6% | viability, T/C (second compound 0.03 µM, first compound 0.316 µM): 85.3% | viability, T/C (second compound 0.03 µM, first compound 1 µM): 76.8% | viability, T/C (second compound 0.03 µM, first compound 3.16 µM): 102% | viability, T/C (second compound 0.03 µM, first compound 10 µM): 102% | viability, T/C (second compound 0.0949 µM, first compound 0.0316 µM): 101% | viability, T/C (second compound 0.0949 µM, first compound 0.1 µM): 78.6% | viability, T/C (second compound 0.0949 µM, first compound 0.316 µM): 88% | viability, T/C (second compound 0.0949 µM, first compound 1 µM): 74.2% | viability, T/C (second compound 0.0949 µM, first compound 3.16 µM): 86.1% | viability, T/C (second compound 0.0949 µM, first compound 10 µM): 116% | viability, T/C (second compound 0.3 µM, first compound 0.0316 µM): 88% | viability, T/C (second compound 0.3 µM, first compound 0.1 µM): 96.7% | viability, T/C (second compound 0.3 µM, first compound 0.316 µM): 86.3% | viability, T/C (second compound 0.3 µM, first compound 1 µM): 93.7% | viability, T/C (second compound 0.3 µM, first compound 3.16 µM): 88.2% | viability, T/C (second compound 0.3 µM, first compound 10 µM): 106% | viability, T/C (second compound 0.949 µM, first compound 0.0316 µM): 87.3% | viability, T/C (second compound 0.949 µM, first compound 0.1 µM): 103% | viability, T/C (second compound 0.949 µM, first compound 0.316 µM): 102% | viability, T/C (second compound 0.949 µM, first compound 1 µM): 90.8% | viability, T/C (second compound 0.949 µM, first compound 3.16 µM): 104% | viability, T/C (second compound 0.949 µM, first compound 10 µM): 115% | viability, T/C (second compound 3 µM, first compound 0.0316 µM): 124% | viability, T/C (second compound 3 µM, first compound 0.1 µM): 103% | viability, T/C (second compound 3 µM, first compound 0.316 µM): 101% | viability, T/C (second compound 3 µM, first compound 1 µM): 106% | viability, T/C (second compound 3 µM, first compound 3.16 µM): 120% | viability, T/C (second compound 3 µM, first compound 10 µM): 137%
